Here are results for two compounds from patent US8486900B2, “Method for preparing a Centella asiatica extract rich in madecassoside and in terminoloside” (Bayer Consumer Care AG, priority 2002, dated 2013).

In one series the test system is human fibroblasts. As to the kind of experiment: Cytotoxicity, Neutral Red assay on human fibroblasts. The conditions noted are these: for Viability (24 h) / Viability (48 h): DMSO 1%. How it is done: A stock solution of the product was prepared beforehand in DMSO and then diluted in culture medium in order to obtain the various test solutions (final concentration of DMSO: 1%). A broad range of 8 concentrations [from 5 to 1000 μg/ml] was initially studied in order to close in the maximum NonCytotoxic Dose (NCD).
A stock solution of the product was prepared beforehand in DMSO and then diluted in culture medium in order to obtain the various test solutions (final concentration of the DMSO: 1%). A broad range of 8 concentrations (between […]) was studied on human fibroblasts in order to close in the maximum NonCytotoxic Dose (NCD).

A further series relates to TIMP-1. As to the kind of experiment: Production of TIMP-1 by human fibroblasts in collagen gel stimulated with TNF-α. The format is cell-based. The conditions noted are these: for Production of TIMP-1, (+) TNF-α, mean: TNF-α 10 ng/ml. How it is done: (§1) An in vitro experimental approach based on measuring the amounts of MMP-1 and of TIMP-1 released into the culture media by human fibroblasts cultured in the absence and in the presence of the products, and stimulated with TNF-α, is proposed. The study was carried out on human fibroblast cultures established from skin biopsies according to the explant method. The fibroblasts are cultured, according to the techniques used in the laboratory, in DMEM medium (sold under the name Invitrogen™ by the company Life Technologies) supplemented with fetal calf serum (10% FCS) and with antibiotics, at […] in a humid air-CO2 (95%-5%) atmosphere.
(§2) After incubation, the plates are emptied. The cultures are rinsed and then exposed to a solution of TNF-α (10 ng/ml) in the absence (control cultures) or in the presence (treated cultures) of the various concentrations of each product being studied. After the addition of TNF-α, the cultures are returned to the incubator at 37° C. for 24 h. At the end of incubation, the media are removed, centrifuged and aliquoted for assaying of MMP-1 and of TIMP-1.
The amount of TIMP-1, an inhibitor specific for MMP-1, was also measured in the supernatants of the cultures treated with asiaticoside or the madecassoside-terminoloside mixture.

In series [1] the test system is human fibroblasts cultured in a three-dimensional gel of collagen. As to the kind of experiment: Cell viability (Neutral Red assay) of collagen gel fibroblast cultures after TNF-α. The format is cell-based. The conditions noted are these: TNF-α 10 ng/ml, 0.2-1.0 mg/ml. How it is done:
(§3) The study was carried out on human fibroblasts cultured in a three-dimensional gel of collagen (dermous equivalent).
(§4) 3. Measurement of cell viability and of the amounts of MMP-1 in the control and treated culture supernatants.
Cell Viability (Neutral Red Assay)

Another series concerns MMP-1. As to the kind of experiment: TNF-α-induced production of MMP-1 by human fibroblasts in collagen gel (dermis equivalent). In kind it is cell-based. Particulars: for Production of MMP-1, (+) TNF-α, mean: TNF-α 10 ng/ml, 24 h pretreatment + 24 h; for decrease in the amount of MMP-1: relative to (+)TNF-α control. The method, then: as §1
Human dermal fibroblasts cultured as a monolayer are detached from their support by trypsinization and suspended in complete medium. After counting, the cell suspension is diluted in culture medium and added, in defined proportions, to a mixture of concentrated culture medium (1.76×DMEM), fetal calf serum (FCS) and type I collagen (acetic acid extract from rat tail tendons). The mixture is then poured, under cold conditions, into 24-well plates in a proportion of 1 ml/well. The dermous equivalents are then placed at 37° C. and incubated for 72 h, in an air-CO2 (95%/5%) atmosphere. The gels gradually contract under the action of the fibroblasts.
72 hours after seeding, the culture medium is removed and replaced with new medium containing the various products being studied (“preventative” treatment). The gels are returned to the incubator at 37° C. and incubated, for 24 hours, in an air-CO2 (95%/5%) atmosphere.
as §2, §3
1. Treatment of cells for 24 h, before induction of MMP-1 with TNF-α.
2. Induction of MMP-1 by the addition of TNF-α (10 ng/ml). Incubation for 24 h.
as §4

The nature of series [2]: Immunomodulatory activity.

Regarding `C[C@H]1[C@H](C)CC[C@]2(C(=O)O[C@@H]3O[C@H](CO[C@@H]4O[C@H](CO)[C@@H](O[C@@H]5O[C@H](C)[C@H](O)[C@@H](O)[C@H]5O)[C@H](O)[C@H]4O)[C@@H](O)[C@H](O)[C@H]3O)CC[C@]3(C)C(=CC[C@@H]4[C@@]5(C)C[C@@H](O)[C@H](O)[C@@](C)(CO)[C@@H]5CC[C@]43C)[C@H]12` [Asiaticoside, asiaticoside], the “Maximum NonCytotoxic Dose (NCD)” value in the series on human fibroblasts came out at 1 mg/mL. The “decrease of cell viability” value in the series on human fibroblasts (48 h, 1 mg/ml) is on record as 12%. The “Viability (24 h)” value in the series on human fibroblasts (10) is recorded as 98%; in the series with human fibroblasts (25) it was 101%; in the series with human fibroblasts (50) it was 101%; in the series on human fibroblasts (100), 101%; in the series with human fibroblasts (250), 101%; in the series on human fibroblasts (500), 97%. The “Viability (24 h)” value with human fibroblasts (1000) is on record as 93%. The “Viability (48 h)” value in the series with human fibroblasts (48 h, 10) stood at 108%; in the series with human fibroblasts (48 h, 25) it was 107%; in the series on human fibroblasts (48 h, 50) it was 106%; in the series on human fibroblasts (48 h, 75), 104%; in the series on human fibroblasts (48 h, 100), 102%; with human fibroblasts (48 h, 250) it was 99%. The “Viability (48 h)” value is 93% with human fibroblasts (48 h, 500); 90% with human fibroblasts (48 h, 750); 88% with human fibroblasts (48 h, 1000). For the same compound, the “cytotoxic effect” value in the series with human fibroblasts (contact for 24 h, 5 to 1000 μg/ml) was “no significant cytotoxic effect”. Further, the nontoxic concentrations entry in the series with human fibroblasts (incubation for 48 h) is recorded as “below 1 mg/ml”. In addition, the “Production of TIMP-1, (+) TNF-α, mean” value is given as 51.01 ng TIMP-1/ml in the series on TIMP-1 (0.2 mg/ml), 50.36 ng TIMP-1/ml with TIMP-1 (0.5 mg/ml) and 48.82 ng TIMP-1/ml in the series with TIMP-1 (1.0 mg/ml). Moreover, the “effect with respect to the production of TIMP-1” value in the series with TIMP-1 (within the range of concentrations tested (0.2-1.0 mg/ml)) was “no effect”. For the same compound, the “solubility” value in the series “Solubility” is reported as “organosoluble”. The “viability of the treated cultures after treatment with TNF-α” value in series [1] was “not modified”. Besides, the “Production of MMP-1, (+) TNF-α, mean” value with MMP-1 (0.2 mg/ml) was 9.96 ng MMP-1/ml; in the series on MMP-1 (0.5 mg/ml), 6.18 ng MMP-1/ml; with MMP-1 (1.0 mg/ml), 3.40 ng MMP-1/ml. Moreover, the “decrease in the amount of MMP-1” value in the series with MMP-1 (C1 = 0.2 mg/ml) came to 18%; in the series on MMP-1 (C2 = 0.5 mg/ml), 49%; in the series with MMP-1 (C3 = 1.0 mg/ml) it was 72%.

As for terminolic acid, the “immunomodulatory activity” value in series [2] was “no immunomodulatory activity”.
